Assay results as given in the supplement of paper PMC11061612.

Key:
Assay in all cases: Bliss excess, mean over the matrix (fraction); higher = more synergy
[1] = test system: OACp4C (Esophageal Adenocarcinoma)
In short: (§1)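 Cell lines grown in DMEM/F12 or RPMI with 10% FBS were plated in 1536-well plates and held 24 hours at 37°C, 5% CO2 before 72 hours of exposure to two-drug dose matrices, with DMSO typically at 0.2%. CellTiter-Glo 2.0 luminescence gave viability, which was converted to inhibition. Vehicle wells were set to 0 and blank wells to 1. Combination Emax is the second-highest inhibition in the matrix, and Bliss excess is the observed combination effect minus the expected EA + EB − EA·EB, where EA and EB are the single-agent effects.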

[2] = test system: GCT (Other Solid Carcinomas)
In short: as §1

[3] = test system: IM-9 (Non-Cancerous)
In short: as §1

[4] = test system: A2780 (Ovarian Carcinoma)
In short: as §1

[5] = test system: KYSE-220 (Esophageal Squamous Cell Carcinoma)
In short: as §1

[6] = test system: NCI-H716 (Colorectal Carcinoma)
In short: as §1

[7] = test system: COLO-792 (Melanoma)
In short: as §1

[8] = test system: 769-P (Kidney Carcinoma)
In short: as §1

[9] = test system: JVM-2 (B-Cell Non-Hodgkin's Lymphoma)
In short: as §1

[10] = test system: NCI-H2228 (Lung Adenocarcinoma)
In short: as §1

[11] = test system: DU-4475 (Breast Carcinoma)
In short: as §1

[12] = test system: NCI-H1703 (Squamous Cell Lung Carcinoma)
In short: as §1

[13] = test system: CESS (Acute Myeloid Leukemia)
In short: as §1

[14] = test system: GA-10 (Burkitt's Lymphoma)
In short: as §1

[15] = test system: KP-N-YN (Neuroblastoma)
In short: as §1

[16] = test system: LS-411N (Colorectal Carcinoma)
In short: as §1

[17] = test system: A204 (Rhabdomyosarcoma)
In short: as §1

[18] = test system: JHU-022 (Oral Cavity Carcinoma)
In short: as §1

[19] = test system: MHH-ES-1 (Ewing's Sarcoma)
In short: as §1

[20] = test system: A253 (Head and Neck Carcinoma)
In short: as §1

Compound	Bliss excess [1]	Bliss excess [2]	Bliss excess [3]	Bliss excess [4]	Bliss excess [5]	Bliss excess [6]	Bliss excess [7]	Bliss excess [8]	Bliss excess [9]	Bliss excess [10]	Bliss excess [11]	Bliss excess [12]	Bliss excess [13]	Bliss excess [14]	Bliss excess [15]	Bliss excess [16]	Bliss excess [17]	Bliss excess [18]	Bliss excess [19]	Bliss excess [20]
Cc1c2c(nn1C)CSCc1cc(n(C)n1)CSc1cc(c3ccccc3c1)OCCCc1c(C(=O)O)n(C)c3c-2c(Cl)ccc13 [AZD5991] + C[C@@H]1COCCN1C2=NC(=NC(=C2)C3(CC3)[S@](=N)(=O)C)C4=C5C=CNC5=NC=C4 [AZD6738] (first compound max 1 µM, 7x7, partner max 10 µM)	0.0108	0.06	-0.0532	-0.0032	-0.0328	0.0138	0.0026	-0.0333	-0.0128	-0.0302	0.0233	-0.0108	0.066	-0.018	-0.0067	0.0069	0.0507	-0.0118	0.0135	0.0364
Cc1c2c(nn1C)CSCc1cc(n(C)n1)CSc1cc(c3ccccc3c1)OCCCc1c(C(=O)O)n(C)c3c-2c(Cl)ccc13 [AZD5991] + C[C@@H](Nc1cc(F)cc(F)c1)c1cc(C(=O)N(C)C)cc2c(=O)cc(N3CCOCC3)oc12 [AZD8186] (first compound max 1 µM, 7x7, partner max 3 µM)	0.0153	-0.0351	-0.0376	-0.0049	-0.006	-0.0335	0.0218	-0.0256	0.0024	-0.0361	-0.0249	-0.0012	-0.0325	0.0321	-0.0498	0.0064	-0.0051	-0.0211	-0.0142	-0.0396
Cc1c2c(nn1C)CSCc1cc(n(C)n1)CSc1cc(c3ccccc3c1)OCCCc1c(C(=O)O)n(C)c3c-2c(Cl)ccc13 [AZD5991] + Cc1cc2ncnn2cc1Nc1ncc2c(n1)n(C1CCOCC1)c(=O)n2C [AZD7648] (first compound max 1 µM, 7x7, partner max 10 µM)	0.008	-0.0702	0.014	-0.0224	0.0083	-0.0646	0.0234	-0.0328	-0.046	-0.0413	0.0811	0.0168	0.0437	-0.0508	-0.0516	-0.0492	-0.0466	-0.028	-0.0323	-0.0286
C[C@@H]1COCCN1c1cc(C2([S@](C)(=N)=O)CC2)nc(-c2ccnc3[nH]ccc23)n1 [AZD6738] + O=C(c1cc(Cc2n[nH]c(=O)c3ccccc23)ccc1F)N1CCN(C(=O)C2CC2)CC1 [Olaparib] (first compound max 10 µM, 7x7, partner max 10 µM)	-0.0281	-0.0027	-0.0255	0.006	-0.0642	-0.0229	0.0322	-0.0656	-0.0708	-0.0305	0.0762	-0.041	0.0222	-0.0726	-0.203	-0.105	-0.0075	-0.0489	0.0366	0.0371
NC1(C(=O)N[C@@H](CCO)c2ccc(Cl)cc2)CCN(c2ncnc3[nH]ccc23)CC1 [Capivasertib] + CC(=O)c1c(C)c2cnc(Nc3ccc(N4CCNCC4)cn3)nc2n(C2CCCC2)c1=O [Palbociclib] (first compound max 10 µM, 7x7, partner max 10 µM)	-0.0239	-0.0569	0.0229	-0.0266	0.0407	-0.0018	-0.0643	-0.0257	-0.036	-0.0216	-0.0335	0.0189	-0.0306	-0.0029	-0.043	-0.0119	-0.0496	-0.0186	0.0257	-0.0709
NC1(C(=O)N[C@@H](CCO)c2ccc(Cl)cc2)CCN(c2ncnc3[nH]ccc23)CC1 [Capivasertib] + CC(C)n1c(=O)n(C)c2cnc3cc(F)c(-c4ccc(OCCCN5CCCCC5)nc4)cc3c21 [AZD1390] (first compound max 10 µM, 7x7, partner max 0.3 µM)	-0.0479	-0.0509	-0.0516	-0.0885	-0.0659	-0.0701	-0.0755	-0.0261	-0.0662	-0.0728	0.0233	-0.0132	-0.0835	-0.028	-0.112	-0.0267	-0.0575	-0.0564	-0.0515	-0.0597
NC1(C(=O)N[C@@H](CCO)c2ccc(Cl)cc2)CCN(c2ncnc3[nH]ccc23)CC1 [Capivasertib] + CCN(CCO)CCCOc1ccc2c(Nc3cc(CC(=O)Nc4cccc(F)c4)[nH]n3)ncnc2c1 [AZD2811] (first compound max 10 µM, 7x7, partner max 1 µM)	-0.0332	-0.0017	-0.0686	0.05	-0.0154	-0.0402	0.0486	-0.0139	-0.142	-0.041	0.0487	-0.0237	0.0217	-0.111	-0.0515	-0.0556	-0.0058	-0.0261	-0.0132	-0.0346
NC1(C(=O)N[C@@H](CCO)c2ccc(Cl)cc2)CCN(c2ncnc3[nH]ccc23)CC1 [Capivasertib] + COc1nnc2ccc(N3CCC(c4ccc(OCCN5CCN(C)C(=O)[C@H]5C)cc4)CC3)nn12 [AZD5153] (first compound max 10 µM, 7x7, partner max 1 µM)	0.0153	0.0049	-0.0708	-0.0148	-0.0248	-0.0181	0.133	0.055	-0.0764	0.036	0.02	0.0357	0.0506	-0.0148	-0.0718	0.11	0.006	0.0019	0.0467	0.125
NC1(C(=O)N[C@@H](CCO)c2ccc(Cl)cc2)CCN(c2ncnc3[nH]ccc23)CC1 [Capivasertib] + C[C@@H]1COCCN1C2=NC(=NC(=C2)C3(CC3)[S@](=N)(=O)C)C4=C5C=CNC5=NC=C4 [AZD6738] (first compound max 10 µM, 7x7, partner max 10 µM)	-0.0402	-0.0719	-0.0514	-0.0336	-0.0523	-0.0317	0.0487	-0.0448	-0.0607	-0.0617	0.0226	-0.0292	0.0044	-0.0303	-0.0395	-0.0605	-0.0201	-0.041	-0.0259	-0.0163
NC1(C(=O)N[C@@H](CCO)c2ccc(Cl)cc2)CCN(c2ncnc3[nH]ccc23)CC1 [Capivasertib] + Cn1cnc2c(F)c(Nc3ccc(Br)cc3Cl)c(C(=O)NOCCO)cc21 [Selumetinib] (first compound max 10 µM, 7x7, partner max 10 µM)	-0.0318	-0.0354	-0.0169	0.0151	0.0644	0.119	0.0139	0.0062	0.0533	0.017	0.0066	0.0358	-0.0147	-0.0442	0.053	0.0005	0.0013	-0.0397	0.0114	0.0591
COc1cccc2c1C(=O)c1c(O)c3c(c(O)c1C2=O)C[C@@](O)(C(=O)CO)C[C@@H]3O[C@H]1C[C@H](N)[C@H](O)[C@H](C)O1 [Doxorubicin] + Cc1cc2ncnn2cc1Nc1ncc2c(n1)n(C1CCOCC1)c(=O)n2C [AZD7648] (first compound max 1 µM, 7x7, partner max 10 µM)	0.0636	0.0589	0.127	0.0194	0.0232	0.0113	-0.0081	0.0903	0.071	0.0042	0.143	0.0451	0.11	0.0964	0.0805	0.0365	0.0782	-0.0307	0.0697	0.108
CS(=O)(=O)CCNCc1ccc(-c2ccc3ncnc(Nc4ccc(OCc5cccc(F)c5)c(Cl)c4)c3c2)o1 [Lapatinib] + C[C@@H](Oc1cc(-c2cnn(C3CCNCC3)c2)cnc1N)c1c(Cl)ccc(F)c1Cl [Crizotinib] (first compound max 10 µM, 7x7, partner max 10 µM)	-0.0355	-0.0251	-0.0378	-0.0277	-0.0397	-0.0217	-0.0237	-0.0331	-0.0131	0.0163	-0.0077	-0.0733	-0.0826	-0.0218	-0.0084	-0.033	-0.0279	-0.0541	-0.0333	-0.0221
CC(=O)c1c(C)c2cnc(Nc3ccc(N4CCNCC4)cn3)nc2n(C2CCCC2)c1=O [Palbociclib] + CC1(C)CCC(CN2CCN(c3ccc(C(=O)NS(=O)(=O)c4ccc(NCC5CCOCC5)c([N+](=O)[O-])c4)c(Oc4cnc5[nH]ccc5c4)c3)CC2)=C(c2ccc(Cl)cc2)C1 [Venetoclax] (first compound max 10 µM, 7x7, partner max 1 µM)	-0.0167	0.0353	0.0389	0.0005	-0.081	0.0345	0.0153	-0.0158	-0.0273	0.005	-0.0162	0.0004	-0.0272	-0.0895	-0.0844	-0.0247	0.0194	-0.0613	0.0193	-0.0555
CC(=O)c1c(C)c2cnc(Nc3ccc(N4CCNCC4)cn3)nc2n(C2CCCC2)c1=O [Palbociclib] + Cc1c2c(nn1C)CSCc1cc(n(C)n1)CSc1cc(c3ccccc3c1)OCCCc1c(C(=O)O)n(C)c3c-2c(Cl)ccc13 [AZD5991] (first compound max 10 µM, 7x7, partner max 1 µM)	-0.064	-0.049	0.0229	-0.0344	-0.0645	-0.0343	-0.105	-0.004	-0.0206	-0.0537	0.0238	-0.0636	-0.0341	-0.0211	0.0562	-0.0397	-0.026	-0.0971	-0.008	-0.134
